This note sets out measurements from patent US10281476B2, “Methods to identify modulators of RyR calcium channels” (REGENTS OF THE UNIVERSITY OF MINNESOTA, priority 2013, dated 2019).

Entries after “also recorded” stand apart in the source; their conditions may differ. Where no end group is shown, it is not given here.

The subject of experiment [1] is RyR2. The experiment is described as follows: RyR2 free thiol content by monobromobimane (mBB) fluorescence. It counts as cell-based, rat. The following applies: 50 μmol/L H2O2, with or without dantrolene pretreatment. The protocol:
Intracellular reactive oxygen species (ROS) formation was measured in rat cardiac myocytes using a fluorescent probe, 5-(and -6)-chloromethyl-2′,7′-dichlorodihydrofluoroscein diacetate (H2DCFDA, 10 μmol/L) (Terentyev et al., Circ Res. 2008; 103:1466-1472). This assay is widely used as a reliable method for the measurement of intracellular ROS such as hydrogen peroxide, hydroxyl radicals, and hydroperoxide. The H2DCFDA dye was excited with the 488 nm and emission was collected at 500-530 nm. The content of free thiols in RyR2 was determined based on the monobromobimane (mBB, Calbiochem) fluorescence intensity, as previously described (Terentyev et al., Circ Res. 2008; 103:1466-1472; Ho et al., J Physiol. 2011; 19:4697-4708). In brief, myocytes were incubated with mBB for 1 hr. Myocytes were then lysed in lysis buffer and loaded on 6% SDS-PAGE gels. The fluorescence emission intensity of the RyR2-bound mBB was measured at 482 nm by exciting at 382 nm. mBB fluorescence was normalized to the RyR2 amount, which was determined using quantitative densitometry of Coomassie Blue-stained gels.
To monitor intracellular ROS level, we used H2DCFDA (10 μmol/L). […] To assess whether dantrolene can attenuate the extent of RyR2 thiol modification in H2O2-treated myocytes, we used a monobromobimane (mBB) fluorescence labeling assay.

For experiment [2], the target named is T1, RyR2 (Rattus norvegicus, UniProt B0LPN4). Kind of experiment: HF647-DPc10 wash-in kinetics by FRET from F-FKBP (donor quench) in permeabilized myocytes. It counts as binding. Also on record: These fluorescent proteins were added to saponin-permeabilized myocytes with or without pre-equilibration with saturating DPc10 concentration; endogenous in cells; host or cells: saponin-permeabilized rat ventricular myocytes. Particulars: for effect on rate of HF647-DPc10 binding (τwash-in): H2O2 50 μmol/L pre-incubation, dantrolene 1 μmol/L in H2O2-treated myocytes. The protocol: The FRET pair we used in this consisted of ALEXA FLUOR™ 488 (donor) covalently attached to FKBP12.6 (F-FKBP) and HiLyte Fluor™647 (acceptor) covalently attached to DPc10 (F-DPc10).^8 To detect F-DPc10 specifically bound to RyR2, we measured donor fluorescence intensities through a 500-530 nm bandpass filter before and after equilibration with acceptor (donor quenching method). The FRET efficiency (E) was calculated according to: E=1-FDA/FD, Where FD and FDA are the fluorescence intensities of the donor-only and donor-plus-acceptor samples, respectively (Oda et al., Circ Res. 2013;112:487-497). Statistics
T1 sequence (B0LPN4 whole entry): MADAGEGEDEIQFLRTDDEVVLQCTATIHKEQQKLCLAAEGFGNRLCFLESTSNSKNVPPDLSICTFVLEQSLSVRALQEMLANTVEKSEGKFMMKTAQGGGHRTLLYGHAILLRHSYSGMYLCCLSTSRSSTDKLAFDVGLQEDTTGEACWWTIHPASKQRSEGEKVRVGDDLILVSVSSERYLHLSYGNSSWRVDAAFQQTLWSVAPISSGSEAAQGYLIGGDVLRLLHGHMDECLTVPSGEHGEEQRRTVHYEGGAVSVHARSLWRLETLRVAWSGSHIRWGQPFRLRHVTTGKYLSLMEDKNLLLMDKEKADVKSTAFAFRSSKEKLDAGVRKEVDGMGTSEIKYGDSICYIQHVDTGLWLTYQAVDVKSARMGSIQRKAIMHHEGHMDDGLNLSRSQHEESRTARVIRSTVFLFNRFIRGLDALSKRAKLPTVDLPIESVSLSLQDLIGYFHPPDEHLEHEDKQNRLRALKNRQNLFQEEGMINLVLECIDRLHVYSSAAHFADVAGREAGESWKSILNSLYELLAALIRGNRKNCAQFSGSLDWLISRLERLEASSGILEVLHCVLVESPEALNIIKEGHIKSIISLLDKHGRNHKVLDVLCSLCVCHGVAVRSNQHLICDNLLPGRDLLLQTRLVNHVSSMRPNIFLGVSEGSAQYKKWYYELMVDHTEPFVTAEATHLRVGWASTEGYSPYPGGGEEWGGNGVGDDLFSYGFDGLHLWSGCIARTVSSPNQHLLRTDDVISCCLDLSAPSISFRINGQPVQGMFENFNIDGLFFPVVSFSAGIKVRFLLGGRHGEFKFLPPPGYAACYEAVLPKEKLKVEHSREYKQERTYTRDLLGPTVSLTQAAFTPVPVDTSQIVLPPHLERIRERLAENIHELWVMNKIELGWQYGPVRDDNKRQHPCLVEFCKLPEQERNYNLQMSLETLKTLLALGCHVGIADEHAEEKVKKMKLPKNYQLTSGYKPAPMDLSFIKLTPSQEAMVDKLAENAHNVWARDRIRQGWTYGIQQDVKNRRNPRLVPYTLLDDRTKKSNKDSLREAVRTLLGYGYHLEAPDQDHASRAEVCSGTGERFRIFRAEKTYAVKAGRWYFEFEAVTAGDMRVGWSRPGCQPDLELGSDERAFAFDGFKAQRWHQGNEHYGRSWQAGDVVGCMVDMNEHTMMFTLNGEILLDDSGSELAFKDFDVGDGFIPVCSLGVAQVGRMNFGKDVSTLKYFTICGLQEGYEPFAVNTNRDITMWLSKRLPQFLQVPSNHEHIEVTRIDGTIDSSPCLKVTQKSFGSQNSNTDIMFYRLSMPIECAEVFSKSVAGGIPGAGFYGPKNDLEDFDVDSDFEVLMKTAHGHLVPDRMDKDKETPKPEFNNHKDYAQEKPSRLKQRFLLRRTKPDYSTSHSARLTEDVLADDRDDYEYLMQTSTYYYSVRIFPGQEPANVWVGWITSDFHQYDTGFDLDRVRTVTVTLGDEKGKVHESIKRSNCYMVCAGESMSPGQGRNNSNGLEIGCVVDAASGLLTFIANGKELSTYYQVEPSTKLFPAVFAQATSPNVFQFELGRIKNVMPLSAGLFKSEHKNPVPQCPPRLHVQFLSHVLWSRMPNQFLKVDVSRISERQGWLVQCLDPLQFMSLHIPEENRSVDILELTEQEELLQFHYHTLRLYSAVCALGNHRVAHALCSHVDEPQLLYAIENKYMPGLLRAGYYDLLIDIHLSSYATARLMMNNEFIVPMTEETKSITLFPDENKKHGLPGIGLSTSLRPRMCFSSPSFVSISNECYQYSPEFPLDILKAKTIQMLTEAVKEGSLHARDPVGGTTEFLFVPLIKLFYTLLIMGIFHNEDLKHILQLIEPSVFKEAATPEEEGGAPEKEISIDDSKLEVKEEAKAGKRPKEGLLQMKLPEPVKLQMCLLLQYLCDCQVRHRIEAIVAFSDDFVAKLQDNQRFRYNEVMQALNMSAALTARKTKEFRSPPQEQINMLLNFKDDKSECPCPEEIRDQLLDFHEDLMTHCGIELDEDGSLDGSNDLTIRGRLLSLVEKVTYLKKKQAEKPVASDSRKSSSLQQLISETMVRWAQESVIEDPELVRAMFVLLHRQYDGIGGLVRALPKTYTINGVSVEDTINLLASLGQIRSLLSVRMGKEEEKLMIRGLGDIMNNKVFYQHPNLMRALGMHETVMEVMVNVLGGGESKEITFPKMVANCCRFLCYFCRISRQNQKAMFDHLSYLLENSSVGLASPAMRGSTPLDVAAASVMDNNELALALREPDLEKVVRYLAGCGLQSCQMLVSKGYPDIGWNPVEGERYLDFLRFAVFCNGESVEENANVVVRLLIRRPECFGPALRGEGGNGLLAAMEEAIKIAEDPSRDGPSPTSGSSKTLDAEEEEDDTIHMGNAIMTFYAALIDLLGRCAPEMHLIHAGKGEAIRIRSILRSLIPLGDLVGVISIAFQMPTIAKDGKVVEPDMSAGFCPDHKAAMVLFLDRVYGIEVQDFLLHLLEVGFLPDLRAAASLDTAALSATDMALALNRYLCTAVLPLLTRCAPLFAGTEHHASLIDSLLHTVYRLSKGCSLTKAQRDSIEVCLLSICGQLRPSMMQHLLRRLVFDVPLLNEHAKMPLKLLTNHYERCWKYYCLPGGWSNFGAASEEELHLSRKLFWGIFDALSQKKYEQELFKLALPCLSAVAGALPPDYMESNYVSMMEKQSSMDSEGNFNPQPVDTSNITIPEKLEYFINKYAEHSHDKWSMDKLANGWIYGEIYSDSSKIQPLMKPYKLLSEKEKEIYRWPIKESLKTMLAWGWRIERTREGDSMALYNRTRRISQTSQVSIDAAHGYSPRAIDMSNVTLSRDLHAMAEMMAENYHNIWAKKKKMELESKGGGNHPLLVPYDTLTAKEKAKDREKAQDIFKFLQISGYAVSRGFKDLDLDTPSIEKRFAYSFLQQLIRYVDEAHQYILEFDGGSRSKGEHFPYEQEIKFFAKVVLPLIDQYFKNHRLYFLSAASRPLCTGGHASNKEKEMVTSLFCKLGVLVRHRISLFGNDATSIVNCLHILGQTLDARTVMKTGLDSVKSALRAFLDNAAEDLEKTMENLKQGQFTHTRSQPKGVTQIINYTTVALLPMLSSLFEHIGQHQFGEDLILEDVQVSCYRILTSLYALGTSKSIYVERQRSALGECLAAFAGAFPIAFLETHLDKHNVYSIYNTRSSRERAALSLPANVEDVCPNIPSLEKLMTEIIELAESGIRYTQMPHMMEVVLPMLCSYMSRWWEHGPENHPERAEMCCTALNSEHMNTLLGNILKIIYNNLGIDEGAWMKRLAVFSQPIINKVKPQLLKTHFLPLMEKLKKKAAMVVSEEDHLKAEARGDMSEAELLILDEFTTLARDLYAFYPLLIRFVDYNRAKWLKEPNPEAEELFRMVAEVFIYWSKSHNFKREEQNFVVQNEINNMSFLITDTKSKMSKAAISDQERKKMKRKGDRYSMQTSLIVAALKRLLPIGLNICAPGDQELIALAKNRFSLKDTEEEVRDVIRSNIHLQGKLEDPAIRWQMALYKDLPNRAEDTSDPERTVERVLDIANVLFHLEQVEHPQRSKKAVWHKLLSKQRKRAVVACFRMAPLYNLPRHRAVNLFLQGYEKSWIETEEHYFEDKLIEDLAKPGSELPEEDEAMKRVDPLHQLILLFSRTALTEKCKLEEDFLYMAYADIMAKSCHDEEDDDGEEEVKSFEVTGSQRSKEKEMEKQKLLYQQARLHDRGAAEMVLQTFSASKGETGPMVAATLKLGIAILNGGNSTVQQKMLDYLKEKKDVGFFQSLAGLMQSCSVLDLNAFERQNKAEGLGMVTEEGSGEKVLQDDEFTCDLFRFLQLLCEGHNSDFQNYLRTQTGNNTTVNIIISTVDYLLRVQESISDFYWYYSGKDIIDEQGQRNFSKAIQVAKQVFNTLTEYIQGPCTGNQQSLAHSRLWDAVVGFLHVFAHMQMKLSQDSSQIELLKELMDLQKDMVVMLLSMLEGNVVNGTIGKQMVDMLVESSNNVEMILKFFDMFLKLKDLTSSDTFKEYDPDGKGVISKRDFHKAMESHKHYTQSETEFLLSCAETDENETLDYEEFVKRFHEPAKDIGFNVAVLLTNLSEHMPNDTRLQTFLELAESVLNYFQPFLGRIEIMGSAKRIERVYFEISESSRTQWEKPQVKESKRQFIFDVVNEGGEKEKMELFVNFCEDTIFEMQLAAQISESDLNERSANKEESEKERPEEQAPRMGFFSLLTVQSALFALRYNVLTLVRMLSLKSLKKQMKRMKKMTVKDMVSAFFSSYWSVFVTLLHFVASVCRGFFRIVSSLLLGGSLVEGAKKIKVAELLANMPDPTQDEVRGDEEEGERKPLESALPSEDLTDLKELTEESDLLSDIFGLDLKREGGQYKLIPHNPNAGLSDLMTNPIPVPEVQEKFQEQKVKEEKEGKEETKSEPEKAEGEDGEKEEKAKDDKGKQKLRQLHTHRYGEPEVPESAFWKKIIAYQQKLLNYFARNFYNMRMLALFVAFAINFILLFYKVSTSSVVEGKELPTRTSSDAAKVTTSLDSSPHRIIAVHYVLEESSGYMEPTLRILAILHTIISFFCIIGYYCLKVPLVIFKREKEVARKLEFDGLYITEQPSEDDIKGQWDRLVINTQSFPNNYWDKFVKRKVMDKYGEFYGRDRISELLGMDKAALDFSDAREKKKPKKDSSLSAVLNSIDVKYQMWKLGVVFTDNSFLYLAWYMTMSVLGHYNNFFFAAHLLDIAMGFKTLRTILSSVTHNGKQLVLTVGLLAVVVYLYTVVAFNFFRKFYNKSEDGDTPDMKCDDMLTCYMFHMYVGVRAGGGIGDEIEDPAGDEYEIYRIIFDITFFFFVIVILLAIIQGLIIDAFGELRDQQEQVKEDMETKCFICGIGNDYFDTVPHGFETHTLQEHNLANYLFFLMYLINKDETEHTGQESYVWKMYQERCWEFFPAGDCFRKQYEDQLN
T1 sequence (P68106 with tags, fused parts or gaps T15C/C23A/C77I partner): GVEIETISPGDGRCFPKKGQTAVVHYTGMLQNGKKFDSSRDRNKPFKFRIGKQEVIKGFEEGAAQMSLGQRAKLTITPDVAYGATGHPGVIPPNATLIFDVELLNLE
Next we tested whether RyR2 oxidation would increase HF647-DPc10 access. Here, we used FRET between F-FKBP as a donor and HF647-DPc10 as an acceptor, to detect DPc10 that specifically binds at RyR2 (Oda et al., Circ Res. 2013; 112:487-497).

Experiment [3] addresses T1, RyR2. Kind of experiment: Fluorescent FKBP12.6 binding at the Z-line of permeabilized myocytes. Also on record: These fluorescent proteins were added to saponin-permeabilized myocytes with or without pre-equilibration with saturating DPc10 concentration; endogenous in cells; host or cells: saponin-permeabilized rat ventricular myocytes. The procedure:
These fluorescent proteins were added to saponin-permeabilized myocytes with or without pre-equilibration with saturating DPc10 concentration. […] We also did this with high [CaM] (500 nmol/L) that saturates RyR2 with CaM under control conditions (without DPc10; FIG. 17C). […] To test whether DPc10 and CaM bind at the same or nearby RyR2 sites, we measured FRET between CaM and DPc10.
FKBP12.6 can bind to and stabilize RyR2 channel gating, but details are controversial (Bers et al., Circ Res. 2012; 110:796-799). We measured the effect of H2O2 on FKBP12.6-RyR2 binding affinity in saponin-permeabilized myocytes using F-FKBP (Yang et al., Circ Res. 2014; 114:295-306; Cornea et al., Proc Natl Acad Sci USA. 2009; 106:6128-6133; Guo et al., Circ Res. 2010; 106:1743-1752; Guo et al., Biophys J. 2011; 101:2170-2177; Cornea et al., J Biol Chem. 2010; 285:19219-19226). […] We used 1 nmol/L F-FKBP (the its Kd) (Guo et al., Circ Res. 2010; 106:1743-1752), because at half-saturation it would be very sensitive to either an increase or decrease in RyR2 binding.

In experiment [4] the test system is permeabilized cardiomyocytes. Kind of experiment: Ca2+ sparks and SR Ca2+ content in permeabilized myocytes. It counts as cell-based, rat. The protocol: Myocytes were permeabilized with saponin (50μg/mL) for 60 seconds and placed in internal solution composed of EGTA 0.5 mmol/L; HEPES 10 mmol/L; Kaspartate 120 mmol/L; ATP 5 mmol/L; free MgCl2 1 mmol/L, reduced glutathione 10 mmol/L; and free [Ca2+] 50nmol/L (calculated using MaxChelator), creatine phosphokinase 5 U/mL, phosphocreatine 10 mmol/L, dextran 4% Fluo-4 0.025 mmol/L, pH 7.2. Ca2+sparks were recorded by a laser scanning confocal microscope (RADIANCE2000™ MP, Bio-Rad, UK) as previously described (Li et al., Circ Res, 2002; 90:309-316). Fluo-4 was excited at 488 nm and emission was recorded using 500/530 nm bandpass filter. To assess SR Ca2+content, caffeine (15 mmol/L) was rapidly perfused. Ca2+spark were analyzed as using SparkMaster (Picht et al., Am J Physiol Cell Physiol, 2007; 293:C1073-C1081).
Next, we asked whether RyR2 is activated by DPc10 and whether FKBP12.6 or CaM can prevent this. We assessed Ca^2+ sparks in permeabilized myocytes perfused with internal solution containing 50 nmol/L free Ca^2+ plus 1 μmol/L autocamtide-2-related inhibitory peptide (to inhibit CaMKII activity). Line-scan images were recorded after 3-hour incubations under control conditions and in the presence of 5 μmol/L DPc10, with or without 1 μmol/L CaM or 100 nmol/L FKBP12.6 (FIG. 14D).

Setting [5] is: DPc10 5 μmol/L, FKBP12.6 100 nmol/L, CaM 1 μmol/L.

Regarding `OO` [H2O2, hydrogen peroxide], the “content of free thiols on RyR2 / RyR2 oxidation level” value in experiment [1] is listed as “significantly decreased”. Moreover, the “effect on rate of HF647-DPc10 binding (τwash-in)” value in experiment [2] was “significantly accelerated”. In addition, the “faster τwash-in of F-DPc10” value in experiment [2] (after H2O2 treatment) came to 50%. The “effect on F-FKBP binding to the RyR2” value in experiment [3] (1 nmol/L F-FKBP, H2O2 50 μmol/L, with or without AIP or dantrolene) was “failed to alter”.
For “GFCPDHKAAMVLFLDRVYGIEVQDFLLHLLEVGFLP [DPc10]”, the “effect on FKBP12.6 binding to RyR2” value in experiment [3] (AF488-FKBP12.6 1 nmol/L, preincubation with 5 μmol/L DPc10) is “does not influence”. In experiment [4] (5 μmol/L DPc10, 3-hour incubation, 50 nmol/L free Ca2+, 1 μmol/L AIP), the “Ca2+ spark frequency (CaSpF) vs control” value is “robustly increased”. For the same compound, in experiment [4] (setting [5]), the “Ca2+ spark FDHM” value is on record as 58.5 ± 1.00 ms, the “Ca2+ spark FWHM” value came to 1.34 ± 0.01 μm and the “Ca2+ spark Peak (F/F0)” value worked out at 0.475 ± 0.004 F/F0. Moreover, the “SR Ca2+ content vs control (caffeine-induced Ca2+ release)” value in experiment [4] (permeabilized myocytes) is listed as “significantly lower”.
Take `O=C1CN(/N=C/c2ccc(-c3ccc([N+](=O)[O-])cc3)o2)C(O)=N1` [dantrolene]: in experiment [1], the “content of free thiols on RyR2 / RyR2 oxidation level” value was “did not attenuate”. Further, the “effect on rate of HF647-DPc10 binding (τwash-in)” value in experiment [2] is “restored; also recorded: reversed”. In addition, the “effect on maximal extent of quench” value in experiment [2] (dantrolene in H2O2-treated myocytes) is recorded as “reduced”.
